Results published in the supplement of paper PMC10307832.

Legend:
Experiment in all cases: relative viability (nuclei count vs DMSO), 5 days (fraction); higher = more cells survive
[1] = compound: CC[C@H](C)N1C=C(C2=C(C=C(C=C21)C3=CN=C(C=C3)N4CCNCC4)C(=O)NCC5=C(C=C(NC5=O)C)C)C [GSK126] + Nc1nc2[nH]cc(CCc3ccc(C(=O)N[C@@H](CCC(=O)O)C(=O)O)cc3)c2c(=O)[nH]1 [Pemetrexed] (partner 0.2 µM)
Summary of the method: (§1)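 Relative viability divides the nuclei count in treated wells by that in vehicle wells. Lung cancer cell lines were seeded in 1536-well plates, dosed by pin tool the next day, and fixed and stained after 5 days in one step with final 0.05% Triton X-100, 1% formaldehyde and 1 ug/ml Hoechst. Dosing was a single drug or a fixed anchor-drug dose plus five library-drug doses (not always all listed) in √10 steps, and values are medians of duplicate plates imaged at 4×.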

[2] = compound: C1CC(C1)(C(=O)O)C(=O)O.[NH2-].[NH2-].[Pt+2] [Carboplatin] + Cc1nc(Nc2ncc(C(=O)Nc3c(C)cccc3Cl)s2)cc(N2CCN(CCO)CC2)n1 [Dasatinib] (partner 0.075 µM)
Summary of the method: as §1

[3] = compound: C1CC(C1)(C(=O)O)C(=O)O.[NH2-].[NH2-].[Pt+2] [Carboplatin] + Cc1nc(NC(=O)N2CCC[C@H]2C(N)=O)sc1-c1ccnc(C(C)(C)C(F)(F)F)c1 [Alpelisib] (partner 2 µM)
Summary of the method: as §1

[4] = compound: CC[C@H](C)N1C=C(C2=C(C=C(C=C21)C3=CN=C(C=C3)N4CCNCC4)C(=O)NCC5=C(C=C(NC5=O)C)C)C [GSK126] + COc1cccc2cc(-c3nc([C@H]4CC[C@H](C(=O)O)CC4)n4ncnc(N)c34)[nH]c12 [OSI-027] (partner 0.5 µM)
Summary of the method: as §1

| Cell Line | relative viability ([1]; first compound 0.08 µM) | relative viability ([1]; first compound 0.253 µM) | relative viability ([1]; first compound 0.8 µM) | relative viability ([1]; first compound 2.53 µM) | relative viability ([1]; first compound 8 µM) | relative viability ([2]; first compound 0.08 µM) | relative viability ([2]; first compound 0.253 µM) | relative viability ([2]; first compound 0.8 µM) | relative viability ([2]; first compound 2.53 µM) | relative viability ([2]; first compound 8 µM) | relative viability ([3]; first compound 0.08 µM) | relative viability ([3]; first compound 0.253 µM) | relative viability ([3]; first compound 0.8 µM) | relative viability ([3]; first compound 2.53 µM) | relative viability ([3]; first compound 8 µM) | relative viability ([4]; first compound 0.08 µM) | relative viability ([4]; first compound 0.253 µM) | relative viability ([4]; first compound 0.8 µM) | relative viability ([4]; first compound 2.53 µM) | relative viability ([4]; first compound 8 µM) |
| --- | --- | --- | --- | --- | --- | --- | --- | --- | --- | --- | --- | --- | --- | --- | --- | --- | --- | --- | --- | --- |
| NCI-H1651 | 0.651 | 0.594 | 0.566 | 0.67 | 0.636 | 0.436 | 0.397 | 0.344 | 0.435 | 0.216 | 0.846 | 1.1 | 0.907 | 0.876 | 0.573 | 0.718 | 0.755 | 0.699 | 0.789 | 0.697 |
| LC-2-ad | 0.257 | 0.265 | 0.278 | 0.281 | 0.253 | 0.701 | 0.567 | 0.414 | 0.416 | 0.277 | 0.876 | 0.906 | 0.88 | 0.882 | 0.786 | 1.02 | 0.868 | 0.902 | 0.862 | 0.985 |
| NCI-H1734 | 0.406 | 0.411 | 0.463 | 0.448 | 0.461 | 0.471 | 0.449 | 0.454 | 0.463 | 0.443 | 0.647 | 0.757 | 0.632 | 0.67 | 0.589 | 0.681 | 0.532 | 0.665 | 0.579 | 0.602 |
| NCI-H460 | 0.0714 | 0.0516 | 0.0631 | 0.0635 | 0.0781 | 0.551 | 0.429 | 0.464 | 0.427 | 0.183 | 0.462 | 0.424 | 0.325 | 0.322 | 0.0696 | 0.843 | 0.615 | 0.622 | 0.718 | 0.656 |
| NCI-H838 | 0.245 | 0.231 | 0.229 | 0.239 | 0.24 | 0.306 | 0.3 | 0.331 | 0.319 | 0.275 | 1.09 | 1.07 | 0.953 | 0.995 | 0.979 | 0.43 | 0.403 | 0.309 | 0.424 | 0.379 |
| NCI-H2347 | 0.422 | 0.396 | 0.448 | 0.441 | 0.461 | 0.325 | 0.26 | 0.346 | 0.322 | 0.273 | 1.02 | 1.12 | 1 | 0.97 | 0.838 | 0.433 | 0.356 | 0.49 | 0.463 | 0.346 |
| NCI-H1395 | 0.942 | 0.773 | 0.867 | 0.988 | 0.759 | 0.423 | 0.367 | 0.392 | 0.42 | 0.516 | 1.18 | 1.03 | 0.768 | 0.68 | 0.578 | 0.679 | 0.561 | 0.648 | 0.704 | 0.649 |
| NCI-H647 | 0.236 | 0.197 | 0.188 | 0.163 | 0.19 | 0.196 | 0.18 | 0.216 | 0.164 | 0.161 | 1.23 | 1.14 | 1.23 | 1.12 | 0.771 | 0.69 | 0.528 | 0.63 | 0.649 | 0.692 |
| NCI-H520 | 0.781 | 0.792 | 0.743 | 0.705 | 0.733 | 0.216 | 0.239 | 0.185 | 0.263 | 0.193 | 0.894 | 1.06 | 0.897 | 0.908 | 0.737 | 0.313 | 0.269 | 0.289 | 0.307 | 0.314 |
